# From patent publication US9522163B2, “Methods of treating hepatitis” (priority 2002, dated 2016)
# Key:
# [1] = system: hemorrhagic shock liver injury; test: Murine model of hemorrhagic shock, liver injury; type: in vivo; details: inhaled CO during resuscitation after 2.5 hour shock phase; at 24 hr
# [2] = system: iNOS; test: iNOS promoter luciferase reporter assay in hepatocytes; type: cell-based; details: CO 250 ppm
# Protocol: (§1) In some experiments, gene transfer of an IκBα superrepressor (Hellerbrand et al., Hepatology 27:1285-1295 (1998)) or β-galactosidase using adenoviral vectors (10 pfu/cell) was performed 12 hours prior to TNF-α/ActD treatment. NF-κB activation was evaluated using a luciferase reporter assay as described in Chow et al. (J. Biol. Chem. 274: 10689-10692 (1999)). Briefly, hepatocytes were co-transfected with NF-κB reporter constructs (pGL3-kappaβ luciferase, 100 ng/well; and pIEP-Lac-z 0.5 μg/well) using Lipofectin™ (Invitrogen, Carlsbad, Calif.) as instructed by the manufacturer. Evaluation of iNOS expression was performed using a luciferase reporter assay as described in Lowenstein et al. (Proc. Natl. Acad. Sci. U.S.A 90: 9730-9734 (1993)). Briefly, hepatocytes were co-transfected with iNOS promoter reporter constructs (pXP2; 1 μg/well) and pIEP-LacZ (0.5 μg/well) as described above.
# Hepatocytes were transfected with plasmids as described above and treated with various stimuli 24 hours after transfection. Luciferase activity (reported as arbitrary units; A.U.) was assayed 6 hours after initiation of treatment, using a luciferase assay kit (Promega, Madison, Wis.) and a Berthold Luminometer. Results were corrected for transfection efficiency and protein concentration. […]
# [3] = system: LPS/D-Gal-induced liver injury; test: LPS/D-Gal acute hepatitis model; type: in vivo, mice
# Protocol: Results discussed above were confirmed using lipopolysaccharide (LPS, also referred to as endotoxin) in place of TNF. […] In mice pretreated with 250 ppm CO, the increase in ALT was reduced by >75%, to 250+/−75 IU/ml. To further characterize the effects observed with CO in this model, serum interleukin-6 was measured, and found to be reduced 65% in animals breathing CO vs air-breathing controls (data not shown). […] Few changes in the markers of inflammation (edema, hemorrhage, neutrophil infiltration) were observed. Architecture was maintained and appeared grossly similar to untreated and CO (in the absence of LPS/D-Gal)-treated mice. Overall, the use of LPS/D-Gal to induce acute hepatitis paralleled and confirmed data generated using TNF/D-Gal treatment.
# [4] = system: primary rat hepatocytes; test: TNF-α induced apoptosis in rat hepatocytes; type: cell-based; details: exposure to CO
# Protocol: (§2) Cells were treated with TNF-α (10 ng/ml) and actinomycin-D (Act-D; 200 ng/ml, Sigma Chemical Co. St. Louis, Mo.) to induce cell death.
# Thus, the effects of CO were independent of the cGMP/p38 MAPK pathway. In these experiments, hepatocytes were pre-treated with CO for one hour prior to addition of TNF-α/ActD to the medium.
# [5] = system: human primary hepatocytes; test: TNF-α/ActD-induced cell death in human hepatocytes; type: cell-based; details: exposure to CO
# Protocol: as §2
# To generate the data presented in FIG. 3, human primary hepatocytes obtained from a donor liver resection were treated with CO and TNF-α/ActD as described above.
# [6] = system: acetaminophen-induced liver injury; test: Acetaminophen (APAP)-induced hepatitis model; type: in vivo, mice
# Protocol: The animals were exposed to CO at a concentration of 250 ppm. […] Mice were placed in the exposure chamber as required.
# To generate the data in FIG. 21, Male C57BL/6J mice were exposed to CO (250 ppm) either 1 hr prior or 4 hr post administration of APAP (500 mg/kg, i.p.). The mice were then maintained in CO for the duration of the experiment. Serum ALT levels were determined 20 hr after APAP administration. Control mice received APAP and were maintained in air. This protocol was designed to allow hepatitis to develop for four hours before administering CO.
# [7] = system: NF-κB; test: NF-κB luciferase reporter assay in hepatocytes; type: cell-based, mouse; details: CO 250 ppm; reporter activity peaked one hour after placing cells in CO
# Protocol: as §1
# Hepatocytes were transfected with plasmids as described above and treated with various stimuli 24 hours after transfection. […] Results were corrected for transfection efficiency and protein concentration.
# To generate the data presented in FIG. 4, evaluation of NF-κB activation was performed using a luciferase reporter assay as described in Chow et al. (J. Biol. Chem. 274: 10689-10692 (1999)). […]
# [8] = system: iNOS; test: iNOS protein immunoblot in hepatocytes; type: cell-based; details: TNF-α/ActD 6-8 hr in presence of CO 250 ppm vs TNF-α alone
# Protocol: (§3) Western blot analysis was performed on primary hepatocytes in culture or from liver homogenates with antibodies to iNOS (Transduction Laboratories, Lexington, Ky.; 1:1000), HO-1 (Calbiochem; 1:2000), or β-actin (Sigma Chemical; 1:5000). Thirty μg protein in cell culture experiments or 100 μg protein from liver homogenates was loaded per well for SDS-PAGE.
# To generate the data in FIG. 8, expression of iNOS protein was evaluated using immunoblotting techniques. Briefly, cell extracts from hepatocytes were treated with TNF-α/ActD for 6-8 hr in the presence and absence of CO (250 ppm). Control cells received air or CO alone.
# [9] = system: HO-1; test: Liver HO-1 expression (immunoblot); type: in vivo, mice
# Protocol: as §3
# To assess the role of iNOS on TNF-α/D-gal-induced HO-1 expression in the liver (data presented in FIG. 16), mice were administered L-NIL (5 mg/kg, i.p.) 2 hr prior to pre-treatment with CO (250 ppm) and every 2 hr thereafter. Control mice received L-NIL and remained in room air.
# [10] = pretreated with 250 ppm CO, 8 hours after LPS/D-Gal
compound,measurement,setting,value
"[C-]#[O+] [CO, carbon monoxide]",Reduction in serum ALT,[1],> 65%
same,iNOS luciferase reporter activity,[2],highly significant increase in activity
same,Liver histopathology,[3]; CO and LPS/D-Gal,protected to the same extent
same,Serum interleukin-6 reduced vs air-breathing controls,"[3]; animals breathing CO, LPS/D-Gal, data not shown",65%
same,Reduction of the increase in serum ALT,[3]; [10],> 75%
same,Serum ALT,[3]; [10],250+/−75 IU/ml
same,TNF-α induced apoptosis,[4],inhibited TNF-α induced apoptosis
same,TNF-α induced apoptosis,[5],inhibited TNF-α induced apoptosis
same,Protection with CO pre-treatment prior to APAP compared with post-treatment,[6]; CO 250 ppm 1 hr prior to APAP,protection was similar
same,Serum ALT,"[6]; CO 250 ppm from 4 hr post APAP 500 mg/kg i.p., 20 hr after APAP, controls 622±44",175±137
same,Reduction in liver injury,[6]; CO 4 hours after APAP 500 mg/kg i.p.,62%
same,"NF-κB activation (luciferase reporter, EMSA, immunostaining)",[7],moderate increase
same,iNOS protein,[8],markedly increased
same,Liver HO-1 expression when iNOS was inhibited,[9]; CO 250 ppm with L-NIL 5 mg/kg i.p. every 2 hr,unable to induce expression
same,Liver HO-1 expression,"[9]; CO 250 ppm, presence and absence of TNF-α/D-gal",significant increase
